In patent US20160237499A1, “Genetic Markers for Antipsychotic Induced Weight Gain and Methods for Use Thereof” (CENTRE FOR ADDICTION AND MENTAL HEALTH, priority 2013, published 2016):

Experiments:
[1] = Percentage weight change in antipsychotic-treated schizophrenia patients; format: in vivo, human; conditions: Sample B (N = 56), SCZ patients of European ancestry receiving clozapine; study duration 6.00 ± 0.00 weeks; mean ± SD
Description: In total, 160 participants with psychotic symptoms were included in this study. Diagnosis for schizophrenia (SCZ) was assessed by the Structured Diagnostic Interviews for DSM-IIIR and/or DSM-IV diagnoses (SCID-I,^31,32), except for sample A where diagnoses were based on an interview assessing both DSM and ICD diagnoses. The inclusion criteria for adult probands were DSM-IIIR/IV diagnosis of SCZ or schizoaffective disorder, with psychotic symptoms. A written informed consent was obtained after the complete study description was given to each participant, and the study has been approved by the Research Ethics Board.
Sample A (N=93) was collected at the Charité University Medicine, Berlin, Germany. […] Clozapine serum levels were monitored during the course of the treatment to ascertain compliance. Clinical response was assessed after 6 weeks using the Brief Psychiatric Rating Scale (BPRS)^35. […]
Statistical analyses of demographic variables, which included sex, age at recruitment, and duration of treatment, were performed across samples using Fisher's Exact tests, analysis of variance, or Kruskal-Wallis tests (Table 1). […] We also analyzed the ‘percent weight change’ variable in a meta-analytic approach to take into account heterogeneity across the three patient sample groups using STATA version 8 (e.g.,^48). […] Linkage disequilibrium and r^2 between marker pairs as determined by Haploview 4.1^49. […]

[2] = administered into the parabrachial nucleus in the brainstem; cited from earlier work
[3] = patients treated with second-generation antipsychotics; cited from earlier work

SMILES	food intake [2]	also measured
CN1CCN(C2=Nc3cc(Cl)ccc3Nc3ccccc32)CC1 [clozapine]		Percentage weight change [1]: 3.88 ± 5.770
Cc1ncc2n1-c1ccc(Cl)cc1C(c1ccccc1F)=NC2 [midazolam]	increased food intake	
Cn1ncnc1COc1nn2c(-c3cc(F)ccc3F)nnc2cc1C(C)(C)C [L-838417]	increased food intake	
Cc1cc2c(s1)Nc1ccccc1N=C2N1CCN(C)CC1 [olanzapine]		treated patients experiencing significant weight gain [3]: about 30%
